Reference: patent US20080152589A1, “Diagnostics and Therapeutics of Neurological Disease” (priority 2006, published 2008)

Key:
[1] = self-administered questionnaire on lithium-induced side-effects, stratified by GSK3B and MAPT haplotype; type: in vivo, human; details: for Odds Ratio, hand tremor present vs absent (pooled High GSKΔexon9 and Low GSKΔexon9+11 haplotypes vs others): lithium treatment; for mean overall side-effect score (SE score): patients administered lithium, 24 items, maximum total score 96
Protocol: Participants (n=84) suffering from a neurological disease who had been administered lithium as a therapeutic were assessed for the prevalence and pattern of lithium-induced side-effects using a self-administered questionnaire. This questionnaire was a modified version of the data collection form from a clinical trial, asking participants to rate 24 side-effect items as ‘Not present’, ‘Mild’, ‘Moderate’, ‘Severe’ and ‘Very Severe’. The 24 items listed include: nausea, vomiting, diarrhea, constipation, weight gain, weight loss, dizziness or light-headedness, blurred vision, hand tremor, muscle weakness, slurred speech, lack of coordination or unsteady gait, poor concentration mental slowing or confusion, forgetfulness or difficulty with memory/recall, drowsiness or sleepiness, worsening mood symptoms, skin rash, hair loss, thirst, dry mouth, metallic taste in mouth, loss of ability to taste food, need to pass urine much more frequently or more urgently, urinary incontinence. An overall side-effect score (SE score) was calculated for each patient based on the above 24 items and their respective grading. A score of zero was given for an absent side effect and increased to a score of 4 for a very severe side effect to give a maximum total score of 96 for each patient.
Each individual was genotyped and classified as having 0, 1 or 2 copies of the disease ‘risk’ GSK3B haplotypes (A-T-C, T-C-C and A-C-T) based on the three functional polymorphisms rs375557, rs334558 and rs6438552. In the subset of patients having a GSK-3B ‘risk’ haplotype and at least one H2 MAPT haplotype, a lower SE score was observed (12.3±2.2) compared to patients with no ‘risk’ haplotype (14.6±2.0).
The relationship between the ‘risk’ haplotypes in GSK3B and common side effect of lithium therapy, hand tremor, was then examined, the results of which are shown in Table 8. […] This information is pertinent, because lithium, which is a therapeutic agent for a number of disorders including bipolar affective disorders and Alzheimer's disease, has significant side effects. Accordingly, assays that detect the presence of a GSK-3B ‘risk’ haplotype optionally combined with detection of a MAPT H2 haplotype are useful for determining subjects likely to respond to treatment and/or that are unlikely to develop a side-effect as a result of treatment.

[2] = target: endogenous Tau of COS-7 cells; experiment: cell-based or functional assay

Compound | Odds Ratio, hand tremor present vs absent (pooled High GSKΔexon9 and Low GSKΔexon9+11 haplotypes vs others) ([1]; MAPT H1/H1) | Odds Ratio, hand tremor present vs absent (pooled High GSKΔexon9 and Low GSKΔexon9+11 haplotypes vs others) ([1]; MAPT H1/H2 + H2/H2 (at least one H2 haplotype)) | Odds Ratio, hand tremor present vs absent (pooled High GSKΔexon9 and Low GSKΔexon9+11 haplotypes vs others) ([1]; all MAPT haplotypes) | mean overall side-effect score (SE score) ([1]; GSK-3B 'risk' haplotype and at least one H2 MAPT haplotype) | mean overall side-effect score (SE score) ([1]; no 'risk' haplotype) | levels of Tau [pSer396] by ELISA in transfected COS-7 cells, compared with the other GSK-3β cDNAs [2] [fold]
[Li] [lithium] | 1.32 | 0.24 | 0.57 | 12.3±2.2 | 14.6±2.0 | 
GSKΔexon9+11 (GSK-3β splice isoform lacking exons 9 and 11) (from UniProt P49841 1-420) (enzyme) |  |  |  |  |  | 2.5
